Key:
[1] = method code SF-GLC, from DOI: 10.1021/je00020a050
[2] = method code SF, from DOI: 10.1034/j.1399-3011.2003.00037.x, PMID: 12492901; settings: pH 2.0
[3] = not given; remark: listed apart in the source
[4] = method code SF-AS, from DOI: 10.1021/jm00254a011, PMID: 4845376
[5] = not given; remark: listed apart in the source
[6] = not given; remark: listed apart in the source
[7] = method code SF, from DOI: 10.1039/p29920000723
[8] = method code SF-AS, from DOI: 10.1246/bcsj.63.3542
[9] = not given; remark: listed apart in the source
[10] = method code SF-AS, from DOI: 10.1248/cpb.40.925
[11] = not given; remark: listed apart in the source
[12] = method code SF-HPLC, from DOI: 10.1016/0378-5173(82)90005-9; settings: pH 3.0
[13] = method code SF, from DOI: 10.1002/jps.2600830714, PMID: 7965679
[14] = not given; remark: listed apart in the source
[15] = not given; remark: listed apart in the source
[16] = method code SF, from DOI: 10.1016/0360-3016(92)90876-j, PMID: 1735696; settings: pH 7.4
[17] = method code SF-AS, from DOI: 10.1111/j.1440-1681.1976.tb00621.x, PMID: 10116
[18] = method code SF-AS, from DOI: 10.1021/j150653a049
[19] = not given; remark: listed apart in the source
[20] = method code SF-HPLC, from DOI: 10.1016/0378-5173(85)90010-9; settings: pH 4.0
[21] = method code SF-AS, from DOI: 10.1002/ps.2780110406
[22] = not given; remark: listed apart in the source
[23] = not given; remark: listed apart in the source
[24] = from Bazaco, J.; Coca, C. (1989). Relation between the partition coefficient (Log Pow) and capacity factor (Log k') derived from reversed-phase HPLC of a series of benzaldehyde derivatives. Ciencia e …
[25] = method code SF-AS, from DOI: 10.1248/cpb.35.377
[26] = method code SF, from Dai, J-Y.; Han, S.; Wang, L. (2000). Prediction of partition properties of substituted benzaldehydes using different structural parameters. Zhongguo Huanjing Kexue (China Environmental Science), …
[27] = method code SF-AS, from DOI: 10.1016/0378-5173(82)90004-7; settings: pH 3.0
[28] = not given; remark: listed apart in the source
[29] = method code SF-GLC, from DOI: 10.1080/03086648508073361
[30] = method code SF, from DOI: 10.1016/0360-3016(89)90912-7, PMID: 2703384; settings: pH 7.4
[31] = method code G-HPLC, from DOI: 10.6028/nbs.ir.81-2406
[32] = not given; remark: listed apart in the source
[33] = not given; remark: listed apart in the source

SMILES: COc1ccc(Cl)c(Cl)c1Cl
- logP [1]: 4.03

SMILES: CC(C)n1ccc(=O)c(O)c1
- logP: -0.02

SMILES: O=C(O)c1cc([N+](=O)[O-])cc([N+](=O)[O-])c1
- logD [2]: 1.75

SMILES: ClC(Cl)=C(Cl)C(Cl)=C(Cl)Cl
- logP [3]: 4.74

SMILES: O=[N+]([O-])c1ccc(N2CCNC2=S)o1
- logP [4]: 0.98

SMILES: CC(C)(C)O
- logP [5]: 0.34

SMILES: Oc1ccc(Cl)cc1Cl
- logP [6]: 3.12

SMILES: CCS(=O)(=O)NC(=O)CCc1ccccc1
- logP [7]: 1.67

SMILES: Oc1ccccc1O
- logP [6]: 1.1

SMILES: CN(C)C(=O)c1ccccn1
- logP [8]: -0.45

SMILES: OCc1ccc(Br)cc1
- logP [9]: 2.15

SMILES: COC(=O)c1c[nH]c2ccccc12
- logP [10]: 2.57

SMILES: O=C(O)c1snc(Cl)c1Cl
- logP [11]: 1.44

SMILES: O=C1NC(=O)C2(CCCCCCC2)C(=O)N1
- logD [12]: 1.79

SMILES: CC(=O)OCC1OC(OC(C)=O)C(NC(=O)C(C)NC(=O)N(CCCl)N=O)C(OC(C)=O)C1OC(C)=O (stereo not given)
- logP [13]: 0.71

SMILES: Oc1c(O)c(Cl)c(Cl)c(Cl)c1Cl
- logP [14]: 4.12

SMILES: c1ccc2cc3c(ccc4ccccc43)cc2c1
- logP [15]: 5.93

SMILES: CONC(=O)CCCn1ccnc1[N+](=O)[O-]
- logD [16]: -0.74

SMILES: N#CCCCCOC(=O)c1ccccc1
- logP [7]: 2.05

SMILES: CC(C)C(Br)C(=O)NC(N)=O (stereo not given)
- logP [17]: 1.14

SMILES: Nc1ccc(Cl)cc1Cl
- logP [3]: 2.64

SMILES: CNc1cnccn1
- logP [8]: 0.56

SMILES: COc1ccccn1
- logP [15]: 1.23

SMILES: OCc1cc(Cl)cc(Cl)c1O
- logP [18]: 2.3

SMILES: CCc1cc(CC)c(OC)c(C(=O)O)c1OC
- logP [19]: 2.98

SMILES: CCCCNC(=O)n1cc(F)c(=O)[nH]c1=O
- logD [20]: 1.44

SMILES: O=NN(CCCl)C(=O)N[C@@H](Cc1ccccc1)C(=O)O
- logP [13]: -0.28

SMILES: COC(=O)c1cc2ccccc2o1
- logP [10]: 2.53

SMILES: CCOP(=S)(OCC)Oc1cccc(F)n1
- logP [21]: 3.51

SMILES: Cc1ccc(O)c(C)c1
- logP [5]: 2.48

SMILES: OCc1ccccc1F
- logP [9]: 1.3

SMILES: OC1CCCCC1
- logP [22]: 1.36

SMILES: CC(=O)OCC(=O)[C@H]1CC[C@H]2[C@@H]3CCC4=CC(=O)CC[C@]4(C)[C@H]3CC[C@]12C
- logP [23]: 3.08

SMILES: COc1c(Cl)c(Cl)c(Cl)c(Cl)c1OC
- logP [1]: 4.86

SMILES: O=Cc1ccc(F)cc1
- logP [24]: 1.54

SMILES: Clc1ccc(-c2ccccc2)cc1Cl
- logP [5]: 5.11

SMILES: CCCn1ccc(=O)c(O)c1
- logP: -0.17

SMILES: CCOc1cc(C=O)ccc1O
- logP [24]: 1.58

SMILES: OCc1c(Cl)cccc1Cl
- logP [25]: 2.02

SMILES: CCCC(C)=O
- logP [22]: 0.95

SMILES: O=C(O)CNc1ccc([N+](=O)[O-])cc1[N+](=O)[O-]
- logD [2]: 1.56

SMILES: On1nc2ccccc2n1
- logP [23]: 0.69

SMILES: CN(O)C(=O)Cn1ccnc1[N+](=O)[O-]
- logD [16]: -0.74

SMILES: Clc1cc(Cl)c(Cl)c(Cl)c1
- logP [21]: 4.68

SMILES: COc1cc(Cl)c(Cl)c(Cl)c1OC
- logP [1]: 4.01

SMILES: O=Cc1ccc(Br)cc1
- logP [26]: 2.75

SMILES: Nc1ccccc1C(=O)O
- logP [25]: 1.13

SMILES: CN(C)C(=O)c1cnccn1
- logP [8]: -0.8

SMILES: CC(C)=CCC1(C(C)C)C(=O)NC(=O)NC1=O
- logD [27]: 2.23

SMILES: CC(C)C(Cl)C(=O)NC(N)=O (stereo not given)
- logP [17]: 1

SMILES: CCOc1ccc(C=O)cc1
- logP [26]: 2.09

SMILES: O=S1CCCC1
- logP [28]: -0.96

SMILES: CCN(CC)P(=O)(N(CC)CC)N1CCCC1
- logP [29]: 2.39

SMILES: Cn1ccc(=O)c(O)c1
- logP: -0.7

SMILES: CC(C)Oc1ccc(C=O)cc1
- logP [26]: 2.3

SMILES: CCOP(=O)(NC(C)C)Oc1ccc(SC)c(C)c1 (stereo not given)
- logP [21]: 3.18

SMILES: CN(C)C(=O)n1cc(F)c(=O)[nH]c1=O
- logD [20]: -0.37

SMILES: Nc1nc(C=Cc2ccc([N+](=O)[O-])o2)no1
- logP [4]: 1.3

SMILES: NC(=O)c1ccccc1Cl
- logP [15]: 0.94

SMILES: O=[N+]([O-])c1cn(CC(F)CO)cn1 (stereo not given)
- logD [30]: -0.8

SMILES: Cc1c(C)c(C)c(C)c(C)c1C
- logP [31]: 4.61

SMILES: CCCCC(O)CCC (stereo not given)
- logP [32]: 2.68

SMILES: Cc1cc(C)c(O)c(C)c1
- logP [31]: 2.73

SMILES: O=c1cc(-c2ccccc2)oc2ccc3ccccc3c12
- logP [33]: 4.94

SMILES: CN(C)P(=O)(N(C)C)N(C)C
- logP [29]: 0.09

SMILES: CCCCC(C)O (stereo not given)
- logP [32]: 1.76

SMILES: CNC(=S)NCC(F)(F)C(F)(F)C(F)(F)F
- logP [7]: 2.39

SMILES: CC(C)(C)C1CCC(O)CC1 (stereo not given)
- logP [32]: 3.09

SMILES: O=NN(CCCl)C(=O)NCC(=O)O
- logP [13]: -1.25

SMILES: Cc1cc(=O)n(-c2ccc(Cl)cc2)cc1C(=O)O
- logP [11]: 4.1

SMILES: COCC(F)Cn1cnc([N+](=O)[O-])c1 (stereo not given)
- logD [30]: -0.04

SMILES: OCc1cc(Cl)ccc1O
- logP [18]: 1.44

SMILES: Nc1c(F)cc(F)cc1F
- logP [9]: 1.81

SMILES: COc1ccccc1C=O
- logP [24]: 1.72

SMILES: O=C(CCCn1ccnc1[N+](=O)[O-])NO
- logD [16]: -1.11

SMILES: CSc1ccc(C=C2C(C)=C(CC(=O)O)c3cc(F)ccc32)cc1
- logP [28]: 4.76

SMILES: OCc1ccccc1Cl
- logP [25]: 1.77

SMILES: O=[N+]([O-])c1nccn1CC(F)CO (stereo not given)
- logD [30]: -0.38

SMILES: ClCc1cccc(CCl)c1
- logP [3]: 2.72

SMILES: COC(=O)c1ccc(Br)o1
- logP [10]: 1.84

SMILES: Cc1ccc(Cl)cc1Cl
- logP [14]: 4.09

SMILES: CC1(C)C(=O)NC(=O)NC1=O
- logD [27]: -0.44

SMILES: Oc1cc(Cl)c(Cl)c(Cl)c1O
- logP [14]: 3.56

SMILES: CC(C)=CCC1(C(C)(C)C)C(=O)NC(=O)NC1=O
- logD [27]: 2.56

SMILES: NC(=S)Nc1cccc2ccccc12
- logP [33]: 1.66

SMILES: CC(C)NC(=O)C=Cc1ncc([N+](=O)[O-])s1
- logP [4]: 1.76

SMILES: CCC(Br)(CC)C(=O)NC(N)=O
- logP [17]: 1.54

SMILES: CCN(CC)P(=O)(N(C)C)N(C)C
- logP [29]: 0.66

SMILES: CCCCC1C(=O)N(c2ccccc2)N(c2ccc(O)cc2)C1=O (stereo not given)
- logP [28]: 3.04

SMILES: CC(C(=O)O)c1ccc(C(=O)c2cccs2)cc1 (stereo not given)
- logP [19]: 2.83

SMILES: O=C(O)c1ccc(I)cc1
- logP [19]: 3.13

SMILES: O=C(O)c1cc(C(F)(F)F)nc2ccccc12
- logP [11]: 3.14

SMILES: COc1cc2c(c(OC)c1OC)-c1ccc(O)c(=O)cc1[C@@H](NC(C)=O)CC2
- logP [23]: 1.03

SMILES: Cc1c2ccccc2c(C)c2c1ccc1ccccc12
- logP [22]: 6.16

SMILES: CC(=O)N[C@@H](Cc1c[nH]c2ccccc12)C(=O)O
- logD [2]: 0.57

SMILES: O=C(Nc1ccccc1)n1cc(F)c(=O)[nH]c1=O
- logD [20]: 1.5

SMILES: OCc1ccccc1O
- logP [18]: 0.56

SMILES: Cc1ccc(O)cc1
- logP [6]: 2.03

SMILES: Brc1ccsc1Br
- logP [33]: 3.53

SMILES: Fc1ccc(CCl)cc1
- logP [31]: 2.73

Source: the SangsterLogP compilation
